Test results published in patent publication US20250212877A1, “SUGAR-CONTAINING COMPOSITION FOR FOLIAR SPRAY AND METHOD OF USING THE SAME” (priority 2022, published 2025).

System: tomato leaf
Test: Foliar absorption rate of sugar, Congo red method, tomato leaf
Settings: summary of TABLE 1 over tomato and strawberry leaves; no adjuvant
Excerpt: In glass greenhouse, cucumber (Korean White, made by Farm Hannong, Korea) and tomato (Seogwangtomato, made by Farm Hannong, Korea) seeds were sown to raise plants. The young plants were transplanted to a vinyl cup having a diameter of 10 cm and cucumber was cultivated up to 4.5-leaf stage and tomato was cultivated up to 6.5-leaf stage. Strawberry young plants (KINGSBERRY) were given from strawberry laboratory, put in each cup pot having a diameter of 10 cm and cultivated up to 6 to 8-leaf stage in the greenhouse. […] Acetonitrile and nonionized water were mixed at 3:7 (volume/volume) to prepare a 30% acetonitrile aqueous solution, 8 ml was put into a test tube having an outer diameter of 32 mm and a length of 200 mm and the test tube was closed with a rubber lid. The leaves sprayed with the sugar aqueous solution was picked, put and cleaned by reverse shaking at the speed of 60 rpm for 2 minutes. The cleaning solution was analyzed by high-performance liquid chromatography (HPLC) to quantify Congo red and sugar, and the sugar absorption rate was calculated by the following Equation 1.

Absorption by tomato leaves and strawberry leaves, maximum: ≤ 1.3%
SMILES: OC[C@H]1O[C@@](CO)(O[C@H]2O[C@H](CO)[C@@H](O)[C@H](O)[C@H]2O)[C@@H](O)[C@@H]1O [sucrose]
